molecular target: T1, APOL1 (Homo sapiens, UniProt O14791); test: MultiTox-Fluor Multiplex Cytotoxicity Assay in tet-inducible APOL1 T-REx-HEK293 cells (cell rescue, ratio of dead to live cells); assay type: cell-based; details: tet-inducible transgenic APOL1 T-REx-HEK293 cell lines, 50 ng/mL tet, 24 hours; read-out: IP50 (i.e., IC50 for cell proliferation)
T1 sequence (O14791 1-398 S342G/I384M): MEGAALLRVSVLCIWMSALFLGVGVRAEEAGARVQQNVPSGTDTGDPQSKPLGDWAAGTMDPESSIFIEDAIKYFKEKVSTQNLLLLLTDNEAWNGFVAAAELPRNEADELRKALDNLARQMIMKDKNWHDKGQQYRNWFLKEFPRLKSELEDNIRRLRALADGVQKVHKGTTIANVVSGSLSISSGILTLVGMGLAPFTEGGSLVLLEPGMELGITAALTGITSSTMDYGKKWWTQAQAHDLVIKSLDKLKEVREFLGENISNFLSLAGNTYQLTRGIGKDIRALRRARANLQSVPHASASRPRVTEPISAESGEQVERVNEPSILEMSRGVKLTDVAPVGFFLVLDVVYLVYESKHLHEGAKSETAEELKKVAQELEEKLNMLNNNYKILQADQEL
Outline: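 T-REx-HEK293 cells with tet-inducible APOL1 were treated with compound (10 μM top, 10-point 3-fold dilution, duplicate) plus 50 ng/mL tetracycline for 24 h at 37° C, in DMEM with 2% tet-free FBS. MultiTox-Fluor protease signals gave a dead/live ratio, normalized to no tet (100% viability) and tet alone (0%).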

| Compound | IC50 [µM] |
| --- | --- |
| CCc1cc2c(s1)CCO[C@@]21CCN(Cc2cnn(CC(C)(CO)CO)c2)[C@@H](C)C1 [Compound 266] | < 0.1 |
| Cc1cncc(N2CCC(CN3CC[C@]4(C[C@@H]3C)OC[C@H](O)c3cc(Cl)sc34)CC2)n1 [Compound 816] | 0.5 to 1 |
| CCc1cc2c(s1)CCO[C@@]21CCN(C[C@H]2C[C@@H](NS(=O)(=O)c3ccc(OC)cc3)C2)[C@@H](C)C1 [Compound 402] | < 0.1 |
| CCc1cc2c(s1)CCO[C@@]21CCN(Cc2cn(C3CC(=O)N(CCOC)C3)nn2)[C@@H](C)C1 (stereo partly drawn) [Compound 180] | < 0.1 |
| CCc1cc2c(s1)CCOC21CCN(Cc2cn(Cc3ccc[nH]c3=O)nn2)CC1 [Compound 1125] | 0.5 to 1 |
| CCc1cc2c(s1)CCO[C@@]21CCN(CC2CN(C(=O)c3cc(C(F)F)[nH]n3)C2)[C@@H](C)C1 [Compound 461] | < 0.1 |
| CCc1cc2c(s1)CCO[C@@]21CCN(C[C@H]2C[C@@H](NC(=O)C3(C)COC3)C2)[C@@H](C)C1 [Compound 359] | 0.1 to 0.5 |
| C[C@H]1C[C@@]2(CCN1Cc1cc(F)cc(F)c1O)OC[C@H](O)c1cc(Cl)sc12 [Compound 774] | 0.5 to 1 |
| C[C@H]1CC2(CCN1Cc1cnn(CCS(C)(=O)=O)c1)OCCc1c2sc2ccccc12 (stereo partly drawn) [Compound 1023, (2′S)-2′-methyl-1′-((1-(2-(methylsulfonyl)ethyl)-1H-pyrazol-4-yl)methyl)-3,4-dihydrospiro[benzo[4,5]thieno[2,3-c]pyran-1,4′-piperidine]] | 0.5 to 1 |
| CCc1cc2c(s1)CCO[C@@]21CCN(Cc2cnc(N[C@@H](CO)[C@H](C)O)nc2)[C@@H](C)C1 [Compound 226] | < 0.1 |
| C[C@H]1C[C@@]2(CCN1Cc1cccc(F)c1O)OCCc1cc(Cl)sc12 [Compound 687] | 0.5 to 1 |
| C[C@H]1C[C@@]2(CCN1Cc1cnc(N3CCOCC3)nc1)OC[C@H](O)c1cc(Cl)sc12 [Compound 800] | < 0.1 |
| CC(O)CCN1CC[C@]2(C[C@@H]1C)OC[C@H](O)c1cc(Cl)sc12 (stereo partly drawn) [Compound 785] | 0.5 to 1 |
| CCc1cc2c(s1)CCO[C@@]21CCN(Cc2cn(CC3CN(C(C)=O)CCO3)nn2)[C@@H](C)C1 (stereo partly drawn) [Compound 171] | 0.1 to 0.5 |
| C[C@H]1C[C@@]2(CCN1Cc1ccnn1C)OC[C@H](O)c1cc(Cl)sc12 [Compound 787] | 0.5 to 1 |
| COCC(O)Cn1cc(CN2CC[C@]3(C[C@@H]2C)OCCc2c3sc(C(F)(F)F)c2CO)cn1 (stereo partly drawn) [Compound 958] | < 0.1 |
| C[C@H]1C[C@@]2(CCN1Cc1cccc(F)c1)OCCc1cc(Cl)sc12 [Compound 688] | 0.5 to 1 |
| CCc1cc2c(s1)CCOC21CCN(Cc2ccc(C(=O)NC(C)CCO)nc2)CC1 (stereo not drawn) [Compound 1054] | < 0.1 |
| COc1cc(OCC(N)=O)ccc1CN1CC[C@]2(C[C@@H]1C)OC[C@H](O)c1cc(Cl)sc12 [Compound 773] | < 0.1 |
| CCc1cc2c(s1)CCO[C@@]21CCN(CC(O)c2ccccc2Cl)[C@@H](C)C1 (stereo partly drawn) [Compound 254] | < 0.1 |
| CCc1cc2c(s1)CCOC21CCN(Cc2cn(Cc3ccc(=O)[nH]c3)nn2)CC1 [Compound 1124] | 0.5 to 1 |
| CCc1ncc(CN2CC[C@]3(C[C@@H]2C)OCCc2cc(Cl)sc23)cn1 [Compound 653] | 0.1 to 0.5 |
| CCc1cc2c(s1)CCO[C@@]21CCN(CC2CN(C(=O)CCO)C2)[C@@H](C)C1 [Compound 447] | 0.1 to 0.5 |
| CCc1cc2c(s1)CCO[C@@]21CCN(Cc2cnn(CCS(=O)(=O)NC)c2)[C@@H](C)C1 [Compound 264, 2-[4-[[(2′S,4R)-2-ethyl-2′-methyl-spiro[6,7-dihydrothieno[3,2-c]pyran-4,4′-piperidine]-1′-yl]methyl]pyrazol-1-yl]-N-methyl-ethanesulfonamide] | < 0.1 |
| CCc1cc2c(s1)CCO[C@@]21CCN(Cc2cn(CCS(C)(=O)=O)nn2)[C@H](C)C1 [Compound 9, (2′R,4R)-2-ethyl-2′-methyl-1′-[[1-(2-methylsulfonylethyl)triazol-4-yl]methyl]spiro[6,7-dihydrothieno[3,2-c]pyran-4,4′-piperidine]] | 0.5 to 1 |
| C[C@H]1C[C@@]2(CCN1Cc1cnn(C)c1)OCC(O)(c1ccccc1)c1cc(Cl)sc12 (stereo partly drawn) [Compound 849, (2′S,7R)-2-chloro-2′-methyl-1′-[(1-methylpyrazol-4-yl)methyl]-4-phenyl-spiro[5H-thieno[2,3-c]pyran-7,4′-piperidine]-4-ol] | 0.1 to 0.5 |
| Cc1c(Cl)sc2c1C(O)CO[C@@]21CCN(Cc2cnn(CCS(C)(=O)=O)c2)[C@@H](C)C1 (stereo partly drawn) [Compound 858, (2′S, 7R)-2-chloro-2′,3-dimethyl-1′-[[1-(2-methylsulfonylethyl)pyrazol-4-yl]methyl]spiro[4,5-dihydrothieno[2,3-c]pyran-7,4′-piperidine]-4-ol] | < 0.1 |

| Compound | IC50 [µM] |
| --- | --- |
| CCc1cc2c(s1)CCO[C@@]21CCN(Cc2cn(CCCS(C)(=O)=O)nn2)[C@@H](C)C1 [Compound 183] | < 0.1 |
| CCc1cc2c(s1)CCO[C@@]21CCN(Cc2ccc(N[C@@H]3C=C[C@H](CO)C3)nc2)[C@@H](C)C1 [Compound 202] | < 0.1 |
| C[C@H]1C[C@@]2(CCN1CC(O)c1ccc(F)c(F)c1)OCCc1cc(CC(F)F)sc12 (stereo partly drawn) [Compound 605] | 0.1 to 0.5 |
| CCc1cc2c(s1)CCO[C@@]21CCN(Cc2cn(CC3(C4CCOCC4)CC3)nn2)[C@@H](C)C1 [Compound 105] | 0.5 to 1 |
| C[C@H]1C[C@@]2(CCN1Cc1cn[nH]c1)OC[C@@H](O)c1cc(C(F)(F)F)sc12 [Compound 874, (2′S,4S,7R)-2′-methyl-1′-(1H-pyrazol-4-ylmethyl)-2-(trifluoromethyl)spiro[4,5-dihydrothieno[2,3-c]pyran-7,4′-piperidine]-4-ol] | < 0.1 |
| CCc1cc2c(s1)CCO[C@@]21CCN(Cc2cn(CCOc3nonc3C)nn2)[C@@H](C)C1 [Compound 185] | < 0.1 |
| CCc1cc2c(s1)CCO[C@@]21CCN(Cc2cn(CC3CCOC3)nn2)[C@@H](C)C1 (stereo partly drawn) [Compound 131] | 0.1 to 0.5 |
| CCc1cc2c(s1)CCO[C@@]21CCN(C[C@H]2C[C@@H](NC(=O)CS(C)(=O)=O)C2)[C@@H](C)C1 [Compound 343] | < 0.1 |
| C[C@H]1C[C@@]2(CCN1Cc1cnn(CC(O)CC3(O)CCC3)c1)OC[C@@H](O)c1cc(C(F)(F)F)sc12 (stereo partly drawn) [Compound 976] | < 0.1 |
| CCc1cc2c(s1)CCO[C@@]21CCN(Cc2cn(CCn3cccn3)nn2)[C@@H](C)C1 [Compound 46] | 0.1 to 0.5 |
| CCc1cc2c(s1)CCO[C@@]21CCN(Cc2cn(Cc3nnc[nH]3)nn2)[C@@H](C)C1 [Compound 65] | 0.1 to 0.5 |
| CCc1cc2c(s1)CCO[C@@]21CCN(Cc2cnc(NC(C)(C)CO)nc2)[C@@H](C)C1 [Compound 201, 2-[[5-[[(2′S,4R)-2-ethyl-2′-methyl-spiro[6,7-dihydrothieno[3,2-c]pyran-4,4′-piperidine]-1′-yl]methyl]pyrimidin-2-yl]amino]-2-methyl-propan-1-ol] | < 0.1 |
| CC(C)OC1CO[C@@]2(CCN(Cc3cnn(CCS(C)(=O)=O)c3)[C@@H](C)C2)c2sc(Cl)cc21 (stereo partly drawn) [Compound 845] | 0.1 to 0.5 |
| CCc1cc2c(s1)CCO[C@@]21CCN(Cc2cn(CCc3cnccn3)nn2)[C@@H](C)C1 [Compound 43] | 0.1 to 0.5 |
| CCc1cc2c(s1)CCO[C@@]21CCN(Cc2ccon2)[C@@H](C)C1 [Compound 279, (2′S,4R)-2-ethyl-1′-(isoxazol-3-ylmethyl)-2′-methyl-spiro[6,7-dihydrothieno[3,2-c]pyran-4,4′-piperidine]] | < 0.1 |
| C[C@H]1C[C@@]2(CCN1Cc1cnn(CC3(C)COC3)c1)OCCc1c2sc(C(F)(F)F)c1CO [Compound 910] | 0.1 to 0.5 |
| C[C@H]1C[C@@]2(CCN1Cc1ccc(F)cn1)OCCc1cc(Cl)sc12 [Compound 665] | 0.1 to 0.5 |
| CCc1cc2c(s1)CCO[C@@]21CCN(Cc2ccc(NS(C)(=O)=O)cc2)[C@@H](C)C1 [Compound 274] | < 0.1 |
| CC(=O)N[C@H]1C[C@@H](CN2CC[C@]3(C[C@@H]2C)OCCc2cc(CC(F)F)sc23)C1 [Compound 558] | < 0.1 |
| CCc1cc2c(s1)CCO[C@@]21CCN(CC2CN(C(=O)C3CC(=O)NC3=O)C2)[C@@H](C)C1 (stereo partly drawn) [Compound 472] | < 0.1 |
| CCc1cc2c(s1)CCO[C@@]21CCN(Cc2ccc(Cl)nc2)[C@@H](C)C1 [Compound 199, (2′S,4R)-1′-[(6-chloro-3-pyridyl)methyl]-2-ethyl-2′-methyl-spiro[6,7-dihydrothieno[3,2-c]pyran-4,4′-piperidine]] | < 0.1 |
| CCc1cc2c(s1)CCOC21CCN(Cc2cn([C@H]3CC[C@@H]3O)nn2)CC1 [Compound 1098] | 0.5 to 1 |
| C[C@H]1C[C@@]2(CCN1CCCO)OCCc1cc(CC(F)F)sc12 [Compound 615] | 0.1 to 0.5 |
| C[C@H]1C[C@@]2(CCN1Cc1cn(C(C)(C)CO)nn1)OCCc1cc(CC(F)F)sc12 [Compound 544] | 0.5 to 1 |
| C[C@H]1C[C@@]2(CCN1Cc1ccc(C#N)nc1)OCCc1cc(Cl)sc12 [Compound 667] | 0.1 to 0.5 |
| CCc1cc2c(s1)CCO[C@@]21CCN(Cc2cn(C[C@H]3C[C@H](O)C3)nn2)[C@@H](C)C1 [Compound 142] | 0.1 to 0.5 |
| Cc1c(Cl)sc2c1C(O)CO[C@@]21CCN(Cc2cnn(CCS(C)(=O)=O)c2)[C@@H](C)C1 (single isomer, unassigned) [Compound 859, (2′S, 7R)-2-chloro-2′,3-dimethyl-1′-[[1-(2-methylsulfonylethyl)pyrazol-4-yl]methyl]spiro[4,5-dihydrothieno[2,3-c]pyran-7,4′-piperidine]-4-ol] | < 0.1 |
